The target of data set [1] is T1, Human TREX1 enzyme (amino acids 1-242) (Homo sapiens, UniProt Q9NSU2).
T1 construct: Human TREX1 enzyme (amino acids 1-242)
T1 sequence (Q9NSU2 1-242): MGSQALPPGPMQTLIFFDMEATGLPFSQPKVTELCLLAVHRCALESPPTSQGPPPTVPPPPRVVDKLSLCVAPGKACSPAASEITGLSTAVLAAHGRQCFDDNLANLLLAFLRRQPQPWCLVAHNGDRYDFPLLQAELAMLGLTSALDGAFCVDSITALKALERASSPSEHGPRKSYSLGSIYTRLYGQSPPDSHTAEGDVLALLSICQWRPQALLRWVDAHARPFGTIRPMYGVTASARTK
The experiment in a line: Human TREX1 enzymatic assay with dsDNA native oligonucleotide (Picogreen fluorescence). The data set is classed as biochemical. To be noted: 2 mM dithiothreitol in assay buffer; 50 nM dsDNA oligonucleotide; 30 min preincubation at 25° C.; read-out: TREX1/Human + DTT IC50 AVG. A digest of the protocol:
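TREX1 (0.8–0.16 nM final) preincubated with compound (300 μM–13 nM or 30 μM–1.5 nM, 2% DMSO) 30 min at 25 °C in Tris pH 7.7, 5 mM MgCl2, 2 mM DTT. Annealed dsDNA (50 nM) added for 5–15 min at 25 °C; EDTA quench with Picogreen fluorescence readout.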

Data set [2] concerns the target T2, Human TREX1 (Homo sapiens, UniProt Q9NSU2).
T2 sequence (Q9NSU2 1-314): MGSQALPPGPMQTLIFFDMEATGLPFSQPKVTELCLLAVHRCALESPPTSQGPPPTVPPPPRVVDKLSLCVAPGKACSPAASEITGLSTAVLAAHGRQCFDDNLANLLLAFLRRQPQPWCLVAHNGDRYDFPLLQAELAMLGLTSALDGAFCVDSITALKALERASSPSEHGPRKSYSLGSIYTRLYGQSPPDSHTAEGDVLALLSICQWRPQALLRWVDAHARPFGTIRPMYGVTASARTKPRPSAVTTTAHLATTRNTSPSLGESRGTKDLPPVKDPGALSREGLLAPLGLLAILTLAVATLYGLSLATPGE
The experiment in a line: Gel assay (orthogonal control, IR-680 oligonucleotide strand degradation). To be noted: polyacrylamide gel, top band intensity; different doses of inhibitor. The data set is classed as biochemical. On the procedure:
A gel assay was conducted as an orthogonal control to confirm observations of TREX1 inhibitors determined with the fluorescence-based assay. Briefly, compounds were diluted in DMSO at 50× the final concentration. Human TREX1 was diluted to […] (2×concentration) in assay buffer (assay buffer: 20 mM Tris pH 7.7 (Life T-echnologies), 5 mM MgCl2 (Sigma), 0.01% HSA (Sigma), 0.01% Brij-35 (ThermoFisher), 2 mM DTT (Sigma)). Oligonucleotide strand (IR-680-5′[…]-3′) (Custom probe made by Trilink) was diluted in the same assay buffer to a working concentration of 25 nM (final concentration of 12.5 nM). Example 107 was added to […] human TREX1 enzyme in clear 96 well plates. The plate was then incubated at 25° C. for 30 minutes. Twenty five nM oligonucleotide strand was added to the plate, to a final concentration of 30 pM TREX1, 12.5 nM oligo, 1× compound and incubated at 25° C. Fifteen minutes later, the reaction was stopped by removing 10 μl of the reaction and adding it to 20 μl of a solution of 50 mM EDTA/1.5× loading dye buffer (6× Orange DNA loading dye; ThermoFisher) in a 96 well PCR plate. […] The top band was quantified using Image Studio (Licor). […] The top band intensity was measured using the Odyssey scanner (Li-Cor) and ImageStudio software (Li-Cor) and FIG. 1B: Graph representing the percent of top band intensity degradation as a measure of human TREX1 activity. […]

`COc1cc(-c2nc3ccc(S(C)(=O)=O)cc3n2C2(C)COC2)c(F)c(O)c1O` [Example 178, 3-fluoro-4-[6-methanesulfonyl-1-(3-methyloxetan-3-yl)-1H-1,3-benzodiazol-2-yl]-6-methoxybenzene-1,2-diol] had a melting point of 257.6 °C. The IC50 in data set [1] fell in the range of 1 to 10 µM.

Regarding `COc1cc(-c2nc3ccc(C#N)cc3n2C2(C)COC2)c(F)c(O)c1O` [Example 179, 2-(2-fluoro-3,4-dihydroxy-5-methoxyphenyl)-1-(3-methyloxetan-3-yl)-1H-1,3-benzodiazole-6-carbonitrile], the melting point was 209 °C. For the same compound, the IC50 in data set [1] is 0.1 to 1 µM.

For `COc1ccc2[nH]c(-c3cc(OC)c(O)c(O)c3C)nc2c1` [Example 175, 6-methoxy-4-(5-methoxy-1H-benzo[d]imidazol-2-yl)-3-methylbenzene-1,2-diol], the melting point stood at 249.1 °C. For the same compound, the IC50 in data set [1] lay within 10 to 100 µM.

The compound `COc1cc(-c2nc3ccccc3n2C2CCC2)c(C2CC2)c(O)c1O` [Example 174, 4-(1-cyclobutyl-1H-benzo[d]imidazol-2-yl)-3-cyclopropyl-6-methoxybenzene-1,2-diol] gave a melting point of 209 °C. Besides, the IC50 in data set [1] lay within 10 to 100 µM.

`COc1cc(-c2nc3ccc(C(N)=O)cc3n2C2(C)COC2)c(F)c(O)c1O` [Example 180, 2-(2-fluoro-3,4-dihydroxy-5-methoxyphenyl)-1-(3-methyloxetan-3-yl)-1H-1,3-benzodiazole-6-carboxamide]: the melting point turned out to be 170.4 °C. For the same compound, the IC50 in data set [1] is not above 0.1 µM.

Consider `COc1cc(-c2nc3ccc(N4CCN(S(C)(=O)=O)CC4)cc3n2C2CCOC2)cc(O)c1O` (centres unmarked) [Example 107, 3-methoxy-5-(6-(4-(methylsulfonyl)piperazin-1-yl)-1-(tetrahydrofuran-3-yl)-1H-benzo[d]imidazol-2-yl)benzene-1,2-diol], for which, in data set [1], the IC50 lay in the range of 1 to 10 µM. Also, the “inhibition of human TREX1 / DNA degradation in gel assay (FIGS. 1A and 1B)” value in data set [2] was “inhibits human TREX1 and prevents DNA degradation”.

In the case of `COc1cc(-c2nc3ccncc3n2C)c(C)c(O)c1O` [Example 54, 6-methoxy-3-methyl-4-(3-methyl-3H-imidazo[4,5-c]pyridin-2-yl)benzene-1,2-diol], the IC50 in data set [1] lay in the range of 10 to 100 µM.

For the compound `COc1cccc(C(=O)N2CCN(c3ccc4[nH]c(-c5cc(O)c(O)c(OC)c5)nc4c3)CC2)c1` [Example 124, (4-(2-(3,4-dihydroxy-5-methoxyphenyl)-1H-benzo[d]imidazol-5-yl)piperazin-1-yl)(3-methoxyphenyl)methanone], in data set [1], the IC50 fell in the range of 1 to 10 µM.

As a reminder, the melting point is the temperature of the solid-liquid transition.
